In PubChem BioAssay (NCI) one finds GI50 and TGI data, which are given here for ten molecules.

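Results reflect a 48-hour exposure of cells in 96-well plates to compound at five concentrations. The concentration for 50% growth inhibition is given as GI50. TGI marks complete inhibition of growth.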 Where only a bound is given, the exact number is not on record here.

Some test systems named below: 786-0 renal; OVCAR-8 ovarian; SNB-19 CNS; M14 melanoma; CAKI-1 renal; NCI-H226 lung; SF-295 CNS; KM12 colon; RXF 393 renal; COLO 205 colon.
What all share (experiment): growth of human tumour cells (NCI), 48 h

Regarding `COc1cc2nc3cc([N+](=O)[O-])ccc3c(NCCCNCCO)c2cc1OC`, the GI50 is 0.239 µM in the experiment on 786-0 renal; 0.202 µM in the experiment on OVCAR-8 ovarian; 0.137 µM in the experiment with SNB-19 CNS; 0.205 µM in the experiment with M14 melanoma; 2.62 µM with CAKI-1 renal; 0.196 µM in the experiment with NCI-H226 lung. Also, the GI50 in the experiment with SF-295 CNS was 0.182 µM; in the experiment with KM12 colon it was 0.285 µM; in the experiment with RXF 393 renal it was 0.186 µM; in the experiment with COLO 205 colon it was 0.162 µM. Besides, the TGI with 786-0 renal was found to be 0.896 µM; in the experiment with OVCAR-8 ovarian, 0.721 µM; in the experiment on SNB-19 CNS it was 0.495 µM; with M14 melanoma it was 0.437 µM; with CAKI-1 renal, 16.7 µM; in the experiment with NCI-H226 lung, 0.505 µM. Moreover, the TGI in the experiment on SF-295 CNS was determined as 0.604 µM; in the experiment on KM12 colon, 0.843 µM; with RXF 393 renal it was 0.473 µM; in the experiment on COLO 205 colon, 0.351 µM.

As to `O=C(Cc1ccccc1)NN1C(=O)C(Cl)C1c1cc(Br)ccc1O` (stereo not given), the TGI in the experiment on 786-0 renal was greater than 100 µM; in the experiment with OVCAR-8 ovarian it was 69.2 µM; with SNB-19 CNS it was 47.9 µM; in the experiment on M14 melanoma it was 19 µM; in the experiment on CAKI-1 renal, 60.7 µM; with NCI-H226 lung, 69.7 µM. For the same molecule, the TGI was 94.3 µM in the experiment on SF-295 CNS, greater than 100 µM in the experiment with KM12 colon, greater than 100 µM with RXF 393 renal and greater than 100 µM in the experiment with COLO 205 colon.

With `C[C@@H]1CC(=O)C2CCCC1C2=O` (stereo not given in full), the TGI in the experiment on 786-0 renal, with OVCAR-8 ovarian, with SNB-19 CNS, with M14 melanoma, in the experiment with CAKI-1 renal and in the experiment with NCI-H226 lung was greater than 100 µM each time. Moreover, the TGI in the experiment on SF-295 CNS, in the experiment on KM12 colon, in the experiment on RXF 393 renal and in the experiment on COLO 205 colon was greater than 100 µM in each case.

Take `CC(C)C(Nc1c2ccccc2nc2ccccc12)C(=O)O` (stereo not given): the TGI in the experiment with 786-0 renal, in the experiment on OVCAR-8 ovarian, in the experiment on SNB-19 CNS, in the experiment on M14 melanoma, with CAKI-1 renal and with NCI-H226 lung was greater than 100 µM each time. Also, the TGI with SF-295 CNS, in the experiment on KM12 colon, in the experiment with RXF 393 renal and with COLO 205 colon was greater than 100 µM in each case.

Turning to `CC(C)(C)c1cc(Br)c(O)c(CN(Cc2cc(C(C)(C)C)cc(Br)c2O)C2CCCCC2)c1`, the TGI came to 27.7 µM in the experiment with 786-0 renal; 28.3 µM in the experiment with OVCAR-8 ovarian; 27.1 µM in the experiment on SNB-19 CNS; 25.5 µM in the experiment with M14 melanoma; 24.7 µM in the experiment on CAKI-1 renal; 29.1 µM with NCI-H226 lung. In addition, the TGI with SF-295 CNS was 25.3 µM; in the experiment on KM12 colon, 29.4 µM; in the experiment on RXF 393 renal, 22.6 µM; in the experiment with COLO 205 colon it was 23.3 µM.

Consider `CN1CCN(CCCOc2ccc3nc(Nc4ccc(Cl)c(C(F)(F)F)c4)ccc3c2)CC1`, for which the GI50 with 786-0 renal was 13.9 µM; in the experiment with OVCAR-8 ovarian, 16.4 µM; in the experiment with SNB-19 CNS, 16.2 µM; in the experiment on M14 melanoma, 12.7 µM; in the experiment on CAKI-1 renal, 14.9 µM; in the experiment on NCI-H226 lung it was 22.2 µM. For the same molecule, the GI50 in the experiment with SF-295 CNS was 14.3 µM; in the experiment with KM12 colon, 9.51 µM; with RXF 393 renal, 12.7 µM; in the experiment with COLO 205 colon it was 9.79 µM. For the same molecule, the TGI worked out at 28.2 µM in the experiment with 786-0 renal; 32.4 µM in the experiment on OVCAR-8 ovarian; 34.5 µM in the experiment on SNB-19 CNS; 26.1 µM with M14 melanoma; 28.4 µM with CAKI-1 renal; 57.1 µM in the experiment with NCI-H226 lung. Moreover, the TGI in the experiment with SF-295 CNS amounted to 29.7 µM; in the experiment with KM12 colon it was 23.4 µM; in the experiment on RXF 393 renal, 28 µM; with COLO 205 colon it was 24.4 µM.

Take `COC(=O)[C@@H](C)CNS(=O)(=O)N(c1cc(C(F)(F)F)cc(C(F)(F)F)c1)C1CCN(Cc2ccc(F)cc2)CC1`: the GI50 in the experiment on 786-0 renal is 11.2 µM; with OVCAR-8 ovarian it was 14.6 µM; with SNB-19 CNS, 13 µM; in the experiment on M14 melanoma, 3.75 µM; in the experiment on CAKI-1 renal, 7.23 µM; with NCI-H226 lung, 13.2 µM. Besides, the GI50 is 10.5 µM in the experiment on SF-295 CNS, 4.92 µM in the experiment on KM12 colon, 10.6 µM in the experiment on RXF 393 renal and 1.88 µM in the experiment with COLO 205 colon. Further, the TGI with 786-0 renal stood at 24 µM; in the experiment on OVCAR-8 ovarian, 33.4 µM; in the experiment with SNB-19 CNS, 25.8 µM; with M14 melanoma, 15 µM; with CAKI-1 renal, 22.3 µM; with NCI-H226 lung it was 30.2 µM. Moreover, the TGI in the experiment on SF-295 CNS is 24.5 µM; in the experiment on KM12 colon it was 17.6 µM; in the experiment on RXF 393 renal it was 23.7 µM; in the experiment with COLO 205 colon it was 3.59 µM.

Regarding `CN1C/C=C\CCOc2cccc(c2)-c2ccnc(n2)Nc2cccc(c2)C1`, the GI50 was 0.0568 µM with 786-0 renal; 0.0385 µM with OVCAR-8 ovarian; 0.057 µM in the experiment on SNB-19 CNS; 0.0644 µM in the experiment on M14 melanoma; 0.0373 µM with CAKI-1 renal; 0.0692 µM in the experiment with NCI-H226 lung. Moreover, the GI50 is 0.0616 µM with SF-295 CNS, 0.0377 µM with KM12 colon, 0.0221 µM in the experiment on RXF 393 renal and 0.024 µM in the experiment on COLO 205 colon. The TGI turned out to be 0.802 µM with 786-0 renal; 0.887 µM in the experiment on OVCAR-8 ovarian; 4.25 µM with SNB-19 CNS; 0.346 µM in the experiment on M14 melanoma; 1.52 µM in the experiment on CAKI-1 renal; 1.3 µM with NCI-H226 lung. Moreover, the TGI in the experiment on SF-295 CNS is 1.1 µM; with KM12 colon it was 0.506 µM; with RXF 393 renal it was 0.0501 µM; in the experiment with COLO 205 colon, 0.0762 µM.

For `COC1=C(C)C(=O)c2c(c(COC(N)=O)c3n2CC2C3N2C)C1=O` (stereo not given), the TGI in the experiment with 786-0 renal was 0.102 µM; with OVCAR-8 ovarian, 0.216 µM; in the experiment on SNB-19 CNS it was 0.256 µM; with M14 melanoma, 0.0641 µM; in the experiment on CAKI-1 renal it was 0.059 µM; with NCI-H226 lung, 0.337 µM. Also, the TGI is 0.0261 µM in the experiment on SF-295 CNS, 0.143 µM in the experiment with KM12 colon, 0.0671 µM in the experiment on RXF 393 renal and 0.119 µM in the experiment with COLO 205 colon.

Regarding `c1cc(CNC23CC4CC(CC(C4)C2)C3)cc(C[N+](Cc2cccc(CNC34CC5CC(CC(C5)C3)C4)c2)(Cc2cccc(CNC34CC5CC(CC(C5)C3)C4)c2)Cc2cccc(CNC34CC5CC(CC(C5)C3)C4)c2)c1` (stereo not given), the GI50 is 3.55 µM with 786-0 renal; 8.64 µM in the experiment with OVCAR-8 ovarian; 8.05 µM in the experiment on SNB-19 CNS; 3.36 µM in the experiment on M14 melanoma; 5.36 µM in the experiment with CAKI-1 renal; 11.5 µM in the experiment on NCI-H226 lung. Further, the GI50 is 12.7 µM in the experiment on SF-295 CNS, 6.92 µM in the experiment with KM12 colon, 3.39 µM in the experiment with RXF 393 renal and 4.57 µM with COLO 205 colon. The TGI with 786-0 renal worked out at 7.75 µM; in the experiment with OVCAR-8 ovarian, 35.4 µM; in the experiment with SNB-19 CNS, 30.4 µM; in the experiment on M14 melanoma it was 8.69 µM; in the experiment with CAKI-1 renal it was 19.6 µM; in the experiment with NCI-H226 lung, 45.3 µM. Further, the TGI was determined as 43.6 µM with SF-295 CNS, 28.2 µM with KM12 colon, 6.54 µM in the experiment on RXF 393 renal and 13.1 µM in the experiment on COLO 205 colon.
